# Legend:
# [1] = mouse, in vivo, po
# [2] = system: minipig hepatocytes; test: Stability in cryopreserved hepatocytes, minipig; type: in vitro ADME; conditions: 10 μM, after 4 hours of incubation
# Procedure: The formation of SRA737-related metabolites was determined in cryopreserved hepatocytes from human, mouse, rat, dog, minipig and monkey samples after incubation with SRA737 at a nominal concentration of 10 μM for up to 4 hours. […] In the human hepatocyte preparation, approximately 67% of the parent remained after 4 hours of incubation compared to 75% and 7% in the rat and minipig preparations, respectively. Eight human SRA737 metabolites were observed. All SRA737 metabolites formed by human hepatocytes were also formed by monkey hepatocytes. Six metabolites were present at equal or greater abundance in the monkey.
# [3] = system: HGSOC PDX model with partial resistance to PARPi; test: In vivo efficacy, HGSOC PDX model with partial resistance to PARPi; parameters: species or system mouse; conditions: high dose SRA737 monotherapy
# Procedure: (§1) A program of in vivo efficacy studies was performed to assess the activity of SRA737 in combination with genotoxic chemotherapy and targeted agents, and as monotherapy.
# (§2) One of these models also carried a MYCN amplification. A fourth HGSOC PDX model with partial resistance to PARPi was also sensitive to high dose SRA737 monotherapy.
# [4] = system: LL/2 (lung cancer); test: In vivo efficacy, LL/2 syngeneic model; parameters: species or system mouse; conditions: data not shown
# Procedure: as §1, §2
# [5] = system: mTmG; test: In vivo efficacy, mTmG syngeneic mouse model; conditions: in combination with a PD1/PD-L1 inhibitor; data not shown
# Procedure: as §1, §2
# [6] = target: T1, Chk1 (Homo sapiens, UniProt O14757); conditions: limited off-target activity against other kinases; Walton et al.; cited from earlier work
# T1 construct: endogenous in cells
# T1 sequence (O14757 1-476): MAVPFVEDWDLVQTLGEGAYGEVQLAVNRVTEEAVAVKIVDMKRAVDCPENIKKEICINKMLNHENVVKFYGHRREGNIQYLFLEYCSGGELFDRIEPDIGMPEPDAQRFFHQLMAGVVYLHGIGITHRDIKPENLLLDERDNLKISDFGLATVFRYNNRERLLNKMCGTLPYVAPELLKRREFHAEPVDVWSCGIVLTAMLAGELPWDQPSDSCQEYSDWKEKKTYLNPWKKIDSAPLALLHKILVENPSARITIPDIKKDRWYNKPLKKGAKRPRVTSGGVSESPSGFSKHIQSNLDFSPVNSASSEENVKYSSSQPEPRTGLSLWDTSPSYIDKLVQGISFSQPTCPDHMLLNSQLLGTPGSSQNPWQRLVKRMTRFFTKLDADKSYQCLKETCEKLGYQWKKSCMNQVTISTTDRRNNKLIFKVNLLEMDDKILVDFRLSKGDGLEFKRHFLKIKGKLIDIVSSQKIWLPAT
# [7] = target: CYP 1A2 (Homo sapiens, UniProt P05177); test: CYP inhibition, 1A2; type: in vitro ADME; conditions: highest concentration investigated
# CYP 1A2, sequence (P05177 whole entry): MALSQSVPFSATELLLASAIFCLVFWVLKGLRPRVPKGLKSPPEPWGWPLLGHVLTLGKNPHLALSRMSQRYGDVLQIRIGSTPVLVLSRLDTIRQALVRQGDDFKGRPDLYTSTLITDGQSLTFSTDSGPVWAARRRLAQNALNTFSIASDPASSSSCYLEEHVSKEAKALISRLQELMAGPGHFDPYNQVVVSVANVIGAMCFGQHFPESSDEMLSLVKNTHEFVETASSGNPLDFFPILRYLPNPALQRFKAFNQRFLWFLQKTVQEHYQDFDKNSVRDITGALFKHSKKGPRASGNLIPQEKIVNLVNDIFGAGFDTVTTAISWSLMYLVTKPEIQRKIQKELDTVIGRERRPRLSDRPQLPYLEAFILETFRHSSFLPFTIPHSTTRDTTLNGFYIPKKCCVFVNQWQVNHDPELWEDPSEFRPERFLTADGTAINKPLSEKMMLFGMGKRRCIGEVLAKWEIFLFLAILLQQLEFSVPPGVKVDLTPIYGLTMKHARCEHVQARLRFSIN
# [8] = GLP 28-day repeat oral dose toxicity and toxicokinetics, minipig; type: in vivo
# From the text: Reference source not found.6.
# [9] = Single dose PK, dog; type: in vivo
# Procedure: (§3) The PK of SRA737 have been determined in the mouse, rat, dog and monkey following oral and IV administration (Table 3). […] An acceptable terminal elimination t1/2 was also observed in each species. […] The plasma protein binding of SRA737 at 1 and 10 μM was examined in mouse, minipig, monkey and human plasma using ultracentrifugation and in dog plasma (10 μM) using rapid equilibrium dialysis.
# [10] = Parallel artificial membrane permeability assay (PAMPA); type: in vitro ADME
# Procedure: The membrane permeability of SRA737 was assessed in the parallel artificial membrane permeability assay (PAMPA) and Caco-2 assays. Permeability in the PAMPA assay was classified as low.
# [11] = system: PDX model of TNBC; test: In vivo efficacy, PDX model of TNBC; parameters: species or system mouse; conditions: with low-dose gemcitabine; data not shown
# Procedure: as §1, §2
# [12] = target: T1, Chk1; test: In vitro genotoxic chemotherapy-induced Chk1 autophosphorylation, checkpoint arrest and cytotoxicity potentiation; type: cell-based
# [13] = target: CYP 2D6 (Homo sapiens, UniProt P10635); test: CYP inhibition, 2D6; type: in vitro ADME; conditions: highest concentration investigated
# CYP 2D6, sequence (P10635 whole entry): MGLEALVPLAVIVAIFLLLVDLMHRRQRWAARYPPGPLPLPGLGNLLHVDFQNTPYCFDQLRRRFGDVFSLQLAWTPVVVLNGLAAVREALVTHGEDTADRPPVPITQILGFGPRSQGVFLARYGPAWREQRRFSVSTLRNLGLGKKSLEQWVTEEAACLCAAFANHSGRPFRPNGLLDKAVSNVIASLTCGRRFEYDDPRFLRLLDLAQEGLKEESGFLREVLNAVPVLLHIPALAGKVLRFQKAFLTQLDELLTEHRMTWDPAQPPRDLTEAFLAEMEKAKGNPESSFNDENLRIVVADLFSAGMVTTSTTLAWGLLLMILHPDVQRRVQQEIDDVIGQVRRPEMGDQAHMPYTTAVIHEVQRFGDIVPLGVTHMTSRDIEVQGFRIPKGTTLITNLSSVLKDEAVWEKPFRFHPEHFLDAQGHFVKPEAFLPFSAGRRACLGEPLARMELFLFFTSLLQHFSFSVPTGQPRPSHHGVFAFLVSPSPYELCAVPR
# [14] = Plasma protein binding, ultracentrifugation, mouse; type: in vitro ADME; conditions: for Percentage Bound / Percentage Free: Mouse plasma
# Procedure: as §3
# [15] = system: Eμ-Myc model of B-cell lymphoma; test: In vivo efficacy, Eμ-Myc model; parameters: species or system mouse; conditions: data not shown
# Procedure: as §1, §2
# [16] = system: Calu6 human (NSCLC); test: In vivo efficacy, Calu6 xenograft model; parameters: species or system mouse; conditions: data not shown
# Procedure: as §1, §2
# [17] = Excretion in urine and feces, rats; type: in vivo; conditions: rat; over 24 hours
# Procedure: The excretion of SRA737 has been studied in mice and rats administered SRA737 at either 5 mg/kg IV or 10 mg/kg orally. Urine and feces were collected for a 24-hour period after dosing. In mice, renal excretion of intact SRA737 was consistently low (less than 10% of dose) after both oral and IV administration. Following IV administration of SRA737, less than 8% of the dose was recovered as intact drug in the feces while after oral administration this figure was less than 3%. Excretion of intact SRA737 was lower in the rat than in the mouse with <1% of dose excreted renally over 24 hours and less than 1.5% of dose excreted into the feces over 24 hours.
# [18] = in vivo, po, Minipig Female, 10 mg/kg/day (HNSTD), daily dosing for 28 days
# [19] = in vivo, po, Minipig Female, 40 mg/kg/day, daily dosing for 28 days
# [20] = in vivo, po, Minipig Female, 75 mg/kg/day, daily dosing for 28 days
# [21] = in vivo, po, Minipig Male, 10 mg/kg/day (HNSTD), daily dosing for 28 days
# [22] = in vivo, po, Minipig Male, 40 mg/kg/day, daily dosing for 28 days
# [23] = in vivo, Dog IV 1 mg/kg single dose
# [24] = in vivo, Dog oral 5 mg/kg single dose
smiles,measurement,setting,value
"N#Cc1cnc(Nc2cc(NCC3CNCCO3)c(C(F)(F)F)cn2)cn1 (centres unmarked) [SRA737, 5-[[4-[[morpholin-2-yl]methylamino]-5-(trifluoromethyl)-2-pyridyl]amino]pyrazine-2-carbonitrile]",MTD,[1],225 mg/m^2/day
same,parent remained,[2],7%
same,sensitivity to SRA737,[3],sensitive
same,single agent efficacy,[4],single agent efficacy
same,antitumor activity,[5],Significant antitumor activity
same,inhibitor of Chk1,[6],potent and selective inhibitor of Chk1
same,IC50,[7],10 to 50 µM
same,AUC(0-t),[8]; [18],6560 ng·h/mL
same,Cmax,[8]; [18],515 ng/mL
same,half-life,[8]; [18],13.6 h
same,AUC(0-t),[8]; [19],45500 ng·h/mL
same,Cmax,[8]; [19],2830 ng/mL
same,half-life,[8]; [19],14.3 h
same,AUC(0-t),[8]; [20],97000 ng·h/mL
same,Cmax,[8]; [20],5340 ng/mL
same,half-life,[8]; [20],31.5 h
same,AUC(0-t),[8]; [21],6480 ng·h/mL
same,Cmax,[8]; [21],622 ng/mL
same,half-life,[8]; [21],9.25 h
same,AUC(0-t),[8]; [22],22200 ng·h/mL
same,Cmax at 28 days,[8]; [22],2070 ng/mL
same,half-life,[8]; [22],7.66 h
same,toxicological findings,"[8]; minipig pivotal study, dose-dependent, reversible on cessation",bone marrow toxicity
same,Foral,[9]; Dog oral 5 mg/kg single dose,86%
same,AUC(0-t),[9]; [23],200 ng·h/mL
same,half-life,[9]; [23],2.8 h
same,AUC(0-t),[9]; [24],850 ng·h/mL
same,Cmax,[9]; [24],130 ng/mL
same,Tmax,[9]; [24],1 to 3 h
same,half-life,[9]; [24],3.5 h
same,permeability in the PAMPA assay,[10],low
same,synergy,[11],Synergy
same,cytotoxicity of genotoxic chemotherapeutic agents and targeted agents,[12],dose-dependent potentiation
same,genotoxicity-induced checkpoint arrest,[12],dose-dependent inhibition
same,genotoxic chemotherapy-induced Chk1 autophosphorylation,[12]; data not shown,potently inhibited
same,IC50,[13],10 to 50 µM
same,Percentage Bound,[14]; 1 μM,94.5%
same,Percentage Free,[14]; 1 μM,5.5%
same,Percentage Bound,[14]; 10 μM,93.4%
same,Percentage Free,[14]; 10 μM,6.6%
same,fraction unbound,"[14]; mouse, plasma, summary of 1 and 10 μM",0.06
same,plasma protein binding,"[14]; mouse, summary of 1 and 10 μM",~94%
same,single agent efficacy,[15],single agent efficacy
same,antitumor activity,[16]; in combination with standard-dose gemcitabine,"Significant, dose-dependent antitumor activity"
same,synergy,[16]; with gemcitabine and carboplatin,Synergy
same,intact SRA737 excreted into the feces,[17],less than 1.5 % of dose
same,intact SRA737 excreted renally,[17],< 1 % of dose

# From patent US20200397796A1, “METHODS OF TREATMENT OF CANCER COMPRISING CHK1 INHIBITORS” (SIERRA ONCOLOGY, INC., priority 2018, published 2020)
